Results reported in patent US6897208B2, “Benzimidazoles” (Aventis Pharmaceuticals Inc., priority 2001, dated 2005).

molecular target: T1, human KDR enzyme (Homo sapiens, UniProt P35968); assay: Phosphorylation of PLCγ substrate by the enzyme KDR in vitro (flashplate technique); format: biochemical; details: read-out: IC50 (μM) on inhibition of the phosphorylation of PLCγ by KDR
T1 construct: The cytoplasmic domain of human KDR enzyme is cloned in the form of a GST fusion; GST; made in house; host or cells: SF21 insect cells (baculovirus, pFastBac)
T1 sequence (P35968 786-1356 limits assumed): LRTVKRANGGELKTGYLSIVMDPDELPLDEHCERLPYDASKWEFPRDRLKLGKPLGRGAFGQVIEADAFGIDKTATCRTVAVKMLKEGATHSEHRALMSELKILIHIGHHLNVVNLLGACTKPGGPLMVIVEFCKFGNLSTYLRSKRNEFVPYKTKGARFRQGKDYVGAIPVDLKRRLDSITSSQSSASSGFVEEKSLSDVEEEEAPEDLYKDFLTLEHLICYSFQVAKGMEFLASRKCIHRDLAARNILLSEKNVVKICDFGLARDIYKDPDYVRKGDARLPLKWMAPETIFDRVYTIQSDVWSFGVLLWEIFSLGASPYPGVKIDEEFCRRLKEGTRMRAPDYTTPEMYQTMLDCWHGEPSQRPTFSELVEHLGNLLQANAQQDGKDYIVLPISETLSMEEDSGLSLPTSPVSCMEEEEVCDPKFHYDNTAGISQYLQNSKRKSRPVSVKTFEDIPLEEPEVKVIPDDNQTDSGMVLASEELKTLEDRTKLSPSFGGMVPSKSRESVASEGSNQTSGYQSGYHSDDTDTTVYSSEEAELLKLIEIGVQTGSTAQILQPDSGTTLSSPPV
Method: 1. Inhibitory Effects of Compounds on KDR
The inhibitory effect of the compounds is determined in a test of phosphorylation of a substrate by the enzyme KDR in vitro by the flasplate technique (96-well plate, NEN).
The cytoplasmic domain of human KDR enzyme is cloned in the form of a GST fusion into the baculovirus expression vector pFastBac. The protein is expressed in the SF21 cells and purified to about 60% homogeneity.
The kinase activity of KDR is measured in 20 mM MOPS, 10 mM MgCl2, 10 mM MnCl2, 1 mM DTT, 2.5 mM EGTA, 10 mM β glycerophosphate, pH 7.2 in the presence of 10 mM MgCl2, 100 μM Na3VO4, 1 mM NaF. 10 μl of the compound are added to 70 μl of kinase buffer containing 100 ng of KDR enzyme at 4° C. The reaction is initiated by adding 20 μl of solution containing 2 μg of substrate (fragment SH2-SH3 of PLCγ expressed in the form of a GST fusion protein), 2 μCi γ33P[ATP] and 2 μM cold ATP. After incubating for 1 hour at 37° C., the reaction is quenched by adding 1 volume (100 μl) of 200 mM EDTA. The incubation buffer is removed and the wells are washed three times with 300 μl of PBS. The radioactivity is measured in each well using a Top Count NXT instrument (Packard).
Background noise is determined by measuring the radioactivity in wells in quadruplet containing radioactive ATP and the substrate alone.
An activity control is measured in wells in quadruplet containing all the reagents (γ33P-[ATP], KDR and the substrate PLCγ) and in the absence of compound.
The inhibition of the KDR activity with the compound of the invention is expressed as a percentage of inhibition of the control activity determined in the absence of compound.
The compound SU5614 (Calbiochem) (1 μM) is included in each plate as inhibition control.
The IC50 values for the compounds are calculated by plotting the dose-response curves. The IC50 corresponds to the concentration of compound that induces a 50% inhibition of the kinase activity.

Compound | IC50 [µM]
2-(1H-Indazol-3-yl)-1H-benzimidazole-5-carboxylic acid N-morpholinoamide [Example 7] | 0.72
2-(1H-Indazol-3-yl)-1H-benzimidazole-5-carboxylic acid N-pyrrolidinoamide [Example 9] | 0.35
2-(1H-Indazol-3-yl)-1H-benzimidazole-5-carboxylic acid N-(2-furfuryl)amide [Example 12] | 0.16
2-(1H-Indazol-3-yl)-1H-benzimidazole-5-carboxylic acid N-(N′-methyl-piperazino)amide [Example 8] | 0.67

system: not given; assay: not given; details: not given

Compound | melting point [°C]
COc1cc2nc(-c3n[nH]cc3NC(=O)C3CC3)[nH]c2cc1Cl [Example 258(a), Cyclopropanecarboxylic acid [3-(6-chloro-5-methoxy-1H-benzoimidazol-2-yl)-1H-pyrazol-4-yl]-amide] | 225 to 226
CCOc1cc(-c2nc3ccccc3[nH]2)n[nH]1 [Example 237, 2-(5-Ethoxy-1H-pyrazol-3-yl)-1H-benzoimidazole] | 217 to 219.5
CSc1cc(-c2nc3ccccc3[nH]2)n[nH]1 [Example 240, (Benzoimidazol-2-yl)-5-methylthio-3-pyrazole] | 242
CSc1cc(-c2nc3ccccc3[nH]2)no1 [Example 238, 2-(5-Methylsulfanyl-isoxazol-3-yl)-1H-benzoimidazole] | 179 to 181
Cc1cc(-c2nc3ccccc3[nH]2)n[nH]1 [Example 236, 2-(5-Methyl-1H-pyrazol-3-yl)-1H-benzoimidazole] | 322 to 324
